Numbered stars: 1 amine (or outer) side, 2 acyl side, 3 side chain; on linkers, the order of the positions; unused ones are H or OH. Square brackets hold non-standard residues; d marks the D form. Side chains are listed from the residue outwards. Peptide text beside a SMILES is read from it. * marks the point of attachment. Decanoyl(10-(4-HOOC-PhO)) = O=C(O)c1ccc(OCCCCCCCCCC(=O)*)cc1; γGlu = O=C(O)[C@H](CCC(=O)[*:2])N[*:1]; C14 diacid = O=C(O)CCCCCCCCCCCCC(=O)*; AEEA = NCCOCCOCC(=O)O; Aib = CC(C)(N)C(=O)O
Assays:
human GLP-1 receptor [1] = target: T1, human GLP-1 receptor (Homo sapiens, UniProt P43220); test: GLP-1 receptor binding: displacement of 125I-GLP-1 (SPA) at low and high albumin; details: 2.0% HSA vs 0.001% HSA
T1 construct: expressed in transfected cells; membranes
T1 sequence (P43220 24-463): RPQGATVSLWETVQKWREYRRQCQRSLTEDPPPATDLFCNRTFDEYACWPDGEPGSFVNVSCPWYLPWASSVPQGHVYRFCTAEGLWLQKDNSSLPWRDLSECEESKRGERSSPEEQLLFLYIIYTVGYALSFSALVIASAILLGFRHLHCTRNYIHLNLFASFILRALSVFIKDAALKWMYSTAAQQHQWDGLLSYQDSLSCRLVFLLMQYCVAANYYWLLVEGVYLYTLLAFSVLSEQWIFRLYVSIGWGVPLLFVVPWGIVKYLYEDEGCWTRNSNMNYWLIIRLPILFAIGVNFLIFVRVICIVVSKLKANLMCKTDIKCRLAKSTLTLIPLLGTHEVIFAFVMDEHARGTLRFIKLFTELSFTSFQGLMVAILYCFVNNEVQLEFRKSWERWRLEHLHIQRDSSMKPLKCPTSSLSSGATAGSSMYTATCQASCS
Outline: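 Membranes from hamster cells stably transfected with the receptor, with WGA SPA beads and 0.06 nM [^125I]-GLP-1(7-36)NH2, incubated 120 min at 30 °C with shaking.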

[2] = Pharmacokinetics in rat: half-life after i.v. administration; format: in vivo; details: plasma, iv, 6 nmol/kg, male Sprague Dawley rats, approximately 4 rats per group, read-out: t½/h (half-life in rat) (converted)
Protocol: In vivo pharmacokinetic studies in rats were performed with the GLP-1 derivatives of Examples 2, 10, 17-18, and 31, as described in the following. Semaglutide was included for comparison.
Male Sprague Dawley rats of same age with a body weight of approximately 400 g were obtained from Taconic (Denmark) and assigned to the treatments by simple randomisation on body weight, approximately 4 rats per group, so that all animals in each group were of similar body weight.
The GLP-1 derivatives (approximately 6 nmol/ml) were dissolved in 50 mM sodium phosphate, 145 mM sodium chloride, 0.05% tween 80, pH 7.4. Intravenous injections (1.0 ml/kg) of the compounds were given through a catheter implanted in the right jugular vein. Blood was sampled from vena sublingualis for 5 days post dosing. Blood samples (200 μl) were collected in EDTA buffer (8 mM) and then centrifuged at 4° C. and 10000 G for 5 minutes. Plasma samples were kept at −20° C. until analyzed for plasma concentration of the respective GLP-1 compound.
The plasma concentrations of the GLP-1 compounds were determined using a Luminescence Oxygen Channeling Immunoasssay (LOCI), generally as described for the determination of insulin by Poulsen and Jensen in Journal of Biomolecular Screening 2007, vol. 12, p. 240-247. The donor beads were coated with streptavidin, while acceptor beads were conjugated with a monoclonal antibody recognising a mid-/C-terminal epitope of the peptide. Another monoclonal antibody, specific for the N-terminus, was biotinylated. The three reactants were combined with the analyte and formed a two-sited immuno-complex. Illumination of the complex released singlet oxygen atoms from the donor beads, which were channeled into the acceptor beads and triggered chemiluminescence which was measured in an Envision plate reader. The amount of light was proportional to the concentration of the compound.
Plasma concentration-time profiles were analyzed using Phoenix WinNonLin ver. 6.2, Pharsight Inc., Mountain View, Calif., USA), and the half-life (T1/2) calculated using individual plasma concentration-time profiles from each animal.

[3] = Estimate of oral bioavailability: gut injection in rat (caprate), exposure in plasma; format: in vivo; details: injection in jejunum, 1000 uM in 55 mg/ml sodium caprate, plasma concentration (pM) at 30 min divided by dosing solution concentration (μM), mean n=4
Outline: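 Male Sprague Dawley rats (~240 g, n=4) received 100 μl of 1000 uM derivative in 55 mg/ml sodium caprate by catheter into proximal or mid jejunum. Tail-vein EDTA plasma was sampled up to 240 min. Peptide was quantified by two-antibody bead chemiluminescence immunoassay, giving mean concentration-time profiles (pmol/l).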

human GLP-1 receptor [4] = target: T1, human GLP-1 receptor; test: In vitro potency: stimulation of cAMP formation (AlphaScreen cAMP Assay) in membranes expressing the human GLP-1 receptor; format: biochemical; details: membranes from BHK467-12A (tk-ts13) expressing the human GLP-1 receptor
Protocol: Purified plasma membranes from a stable transfected cell line, BHK467-12A (tk-ts13), expressing the human GLP-1 receptor were stimulated with the GLP-1 analogue or derivative in question, and the potency of cAMP production was measured using the AlphaScreen™ cAMP Assay Kit from Perkin Elmer Life Sciences. The basic principle of the AlphaScreen Assay is a competition between endogenous cAMP and exogenously added biotin-cAMP. The capture of cAMP is achieved by using a specific antibody conjugated to acceptor beads.
A stable transfected cell line and a high expressing clone were selected for screening. The cells were grown at 5% CO2 in DMEM, 5% FCS, 1% Pen/Strep (Penicillin/Streptomycin) and 0.5 mg/ml of the selection marker G418.
Cells at approximately 80% confluence were washed 2× with PBS and harvested with Versene (aqueous solution of the tetrasodium salt of ethylenediaminetetraacetic acid), centrifuged 5 min at 1000 rpm and the supernatant removed. The additional steps were all performed on ice. The cell pellet was homogenised by the Ultrathurax for 20-30 s in 10 ml of Buffer 1 (20 mM Na-HEPES, 10 mM EDTA, pH=7.4), centrifuged 15 min at 20,000 rpm and the pellet resuspended in 10 ml of Buffer 2 (20 mM Na-HEPES, 0.1 mM EDTA, pH=7.4). The suspension was homogenised for 20-30 s and centrifuged 15 min at 20,000 rpm. Suspension in Buffer 2, homogenisation and centrifugation was repeated once and the membranes were resuspended in Buffer 2. The protein concentration was determined and the membranes stored at −80° C. until use.
The final volume per well was 50 μl.
AlphaScreen cAMP Assay Kit from Perkin Elmer Life Sciences (cat. No: 6760625M); containing Anti-cAMP Acceptor beads (10 U/μl), Streptavidin Donor beads (10 U/μl) and Biotinylated-cAMP (133 U/μl).
cAMP standard (dilution factor in assay=5): cAMP Solution: 5 μL of a 5 mM cAMP-stock+495 μL AlphaScreen Buffer.
Membranes were prepared from hGLP-1/BHK 467-12A cells with a concentration of 6 μg/well corresponding to 0.6 mg/ml (the amount of membranes used pr. well may vary)
“No membranes”: Acceptor Beads (15 μg/ml final) in AlphaScreen buffer
“6 μg/well membranes”: membranes+Acceptor Beads (15 μg/ml final) in AlphaScreen buffer
An aliquot (10 μl) of “No membranes” was added to the cAMP standard (per well in duplicate wells) and the positive and negative controls
An aliquot (10 μl) of “6 μg/well membranes” was added to GLP-1 and analogues (per well in duplicate or triplicate wells)
Pos. Control: 10 μl “no membranes”+10 μl AlphaScreen Buffer
Neg. Control: 10 μl “no membranes”+10 μl cAMP Stock Solution (50 μM)
1. Make the AlphaScreen Buffer.
2. Dissolve and dilute the GLP-1/Analogues/cAMP standard in AlphaScreen Buffer.
4. Add the cAMP/GLP-1/Analogues to the plate: 10 μl per well.
5. Prepare membrane/Acceptor Beads solution and add this to the plates: 10 μl per well.
6. Add the Donor Beads: 30 μl per well.

SMILES	Ratio [(IC50/nM) high HSA]/[(IC50/nM) low HSA] (human GLP-1 receptor [1])	half-life [2]	Dose-corrected exposure at 30 min [3]	EC50 (human GLP-1 receptor [4])
CC[C@H](C)[C@H](NC(=O)[C@H](Cc1ccccc1)NC(=O)[C@H](CCCCNC(=O)COCCOCCNC(=O)COCCOCCNC(=O)CC[C@H](NC(=O)CCCCCCCCCCCCC(=O)O)C(=O)O)NC(=O)[C@H](CCCNC(=N)N)NC(=O)[C@H](C)NC(=O)[C@H](C)NC(=O)[C@H](CCC(N)=O)NC(=O)[C@H](CCC(=O)O)NC(=O)[C@H](CCC(=O)O)NC(=O)[C@H](CC(C)C)NC(=O)[C@H](Cc1ccc(O)cc1)NC(=O)[C@H](CO)NC(=O)[C@H](CO)NC(=O)[C@@H](NC(=O)[C@H](CC(=O)O)NC(=O)[C@H](CO)NC(=O)[C@@H](NC(=O)[C@H](CCCCNC(=O)COCCOCCNC(=O)COCCOCCNC(=O)CC[C@H](NC(=O)CCCCCCCCCCCCC(=O)O)C(=O)O)NC(=O)[C@@H](NC(=O)CNC(=O)[C@H](CCC(=O)O)NC(=O)C(C)(C)NC(=O)[C@@H](N)Cc1c[nH]cn1)[C@@H](C)O)[C@@H](C)O)C(C)C)C(=O)N[C@@H](C)C(=O)N[C@@H](Cc1c[nH]cn1)C(=O)N[C@@H](CC(C)C)C(=O)N[C@H](C(=O)N[C@@H](CCC(N)=O)C(=O)NCC(=O)N[C@@H](CCCNC(=N)N)C(=O)NCC(=O)O)C(C)C [Example 18, N^ε12-[2-[2-[2-[[2-[2-[2-[[(4S)-4-carboxy-4-(13-carboxytridecanoylamino)butanoyl]amino]ethoxy]ethoxy]acetyl]amino]ethoxy]ethoxy]acetyl], N^ε27-[2-[2-[2-[[2-[2-[2-[[(4S)-4-carboxy-4-(13-carboxytridecanoylamino)butanoyl]amino]ethoxy]ethoxy]acetyl]amino]ethoxy]ethoxy]acetyl]-[Aib^8,Lys^12,Glu^22,Arg^26,Lys^27,His^31,Gln^34]-GLP-1-(7-37)-peptide] (H-H[Aib]EGTK([AEEA-AEEA-γGlu-C14 diacid])TSDVSSYLEEQAARK([AEEA-AEEA-γGlu-C14 diacid])FIAHLVQGRG-OH)	2.1	10 h		
CC[C@H](C)[C@H](NC(=O)[C@H](Cc1ccccc1)NC(=O)[C@H](CCCCNC(=O)COCCOCCNC(=O)COCCOCCNC(=O)CC[C@H](NC(=O)CCCCCCCCCCCCC(=O)O)C(=O)O)NC(=O)[C@H](CCCNC(=N)N)NC(=O)[C@H](C)NC(=O)[C@H](C)NC(=O)[C@H](CCC(N)=O)NC(=O)[C@H](CCCCNC(=O)COCCOCCNC(=O)COCCOCCNC(=O)CC[C@H](NC(=O)CCCCCCCCCCCCC(=O)O)C(=O)O)NC(=O)[C@H](CCC(=O)O)NC(=O)[C@H](CC(C)C)NC(=O)[C@H](Cc1ccc(O)cc1)NC(=O)[C@H](CO)NC(=O)[C@H](CO)NC(=O)[C@@H](NC(=O)[C@H](CC(=O)O)NC(=O)[C@H](CO)NC(=O)[C@@H](NC(=O)[C@H](Cc1ccccc1)NC(=O)[C@@H](NC(=O)CNC(=O)[C@H](CCC(=O)O)NC(=O)C(C)(C)NC(=O)[C@@H](N)Cc1c[nH]cn1)[C@@H](C)O)[C@@H](C)O)C(C)C)C(=O)N[C@@H](C)C(=O)N[C@@H](Cc1c[nH]cn1)C(=O)N[C@@H](CC(C)C)C(=O)N[C@H](C(=O)NCC(=O)O)C(C)C [Example 19, N^ε22-[2-[2-[2-[[2-[2-[2-[[(4S)-4-carboxy-4-(13-carboxytridecanoylamino)butanoyl]amino]ethoxy]ethoxy]acetyl]amino]ethoxy]ethoxy]acetyl], N^ε27-[2-[2-[2-[[2-[2-[2-[[(4S)-4-carboxy-4-(13-carboxytridecanoylamino)butanoyl]amino]ethoxy]ethoxy]acetyl]amino]ethoxy]ethoxy]acetyl]-[Aib^8,Lys^22,Arg^26,Lys^27,His^31,Gly^34]-GLP-1-(7-34)-peptide] (H-H[Aib]EGTFTSDVSSYLEK([AEEA-AEEA-γGlu-C14 diacid])QAARK([AEEA-AEEA-γGlu-C14 diacid])FIAHLVG-OH)	60		61	52 pM
CC[C@H](C)[C@H](NC(=O)[C@H](Cc1ccccc1)NC(=O)[C@H](CCCCNC(=O)COCCOCCNC(=O)COCCOCCNC(=O)CC[C@H](NC(=O)CCCCCCCCCOc1ccc(C(=O)O)cc1)C(=O)O)NC(=O)[C@H](Cc1c[nH]cn1)NC(=O)[C@H](C)NC(=O)[C@H](C)NC(=O)[C@H](CCC(N)=O)NC(=O)[C@H](CCC(=O)O)NC(=O)[C@H](CCC(=O)O)NC(=O)[C@H](CC(C)C)NC(=O)[C@H](Cc1ccc(O)cc1)NC(=O)[C@H](CO)NC(=O)[C@H](CO)NC(=O)[C@@H](NC(=O)[C@H](CC(=O)O)NC(=O)[C@H](CO)NC(=O)[C@@H](NC(=O)[C@H](Cc1ccccc1)NC(=O)[C@@H](NC(=O)CNC(=O)[C@H](CCC(=O)O)NC(=O)[C@H](C)NC(=O)[C@@H](N)Cc1c[nH]cn1)[C@@H](C)O)[C@@H](C)O)C(C)C)C(=O)N[C@@H](CCC(=O)O)C(=O)N[C@@H](Cc1c[nH]c2ccccc12)C(=O)N[C@@H](CC(C)C)C(=O)N[C@H](C(=O)N[C@@H](CCCNC(=N)N)C(=O)NCC(=O)N[C@@H](CCCCNC(=O)COCCOCCNC(=O)COCCOCCNC(=O)CC[C@H](NC(=O)CCCCCCCCCOc1ccc(C(=O)O)cc1)C(=O)O)C(=O)NCC(=O)N[C@@H](CCC(=O)O)C(=O)O)C(C)C [Example 21, N^ε27-[2-[2-[2-[[2-[2-[2-[[(4S)-4-carboxy-4-[10-(4-carboxyphenoxy)decanoylamino]butanoyl]amino]ethoxy]ethoxy]acetyl]amino]ethoxy]ethoxy]acetyl], N^ε36-[2-[2-[2-[[2-[2-[2-[[(4S)-4-carboxy-4-[10-(4-carboxyphenoxy)decanoylamino]butanoyl]amino]ethoxy]ethoxy]acetyl]amino]ethoxy]ethoxy]acetyl]-[Glu^22,His^26,Lys^27,Glu^30,Arg^34,Lys^36]-GLP-1-(7-37)-peptidyl-Glu] (H-HAEGTFTSDVSSYLEEQAAHK([AEEA-AEEA-γGlu-Decanoyl(10-(4-HOOC-PhO))])FIEWLVRGK([AEEA-AEEA-γGlu-Decanoyl(10-(4-HOOC-PhO))])GE-OH; N-terminus and C-terminus assumed)			140	52 pM

— US11117947B2, “Double-acylated GLP-1 derivatives” (Novo Nordisk A/S, priority 2011, dated 2021)
